In US20090220435A1, “TIGHT JUNCTION MODULATING PEPTIDE COMPONENTS FOR ENHANCING MUCOSAL DELIVERY OF THERAPEUTIC AGENTS” (priority 2005, published 2009):
Read-outs that look alike come from different tables or passages of the source. Non-standard residues stand in square brackets, D forms with d. Residues, ends and D or L forms follow the SMILES beside them.

What was measured:
[1] = test system: EpiAirway™ human-derived tracheal/bronchial epithelial cells; assay: Transepithelial electrical resistance (TER) across EpiAirway epithelial cell layer; assay type: cell-based; details: for Relative TER Decrease: relative to PN159 = 1.0; for TER(x)/TER(159) +/− SEM: ratio to PN159; for TER reduction (highest within the concentration range tested): EpiAirway epithelial cells
[2] = test system: EpiAirway™ human-derived tracheal/bronchial epithelial cells; assay: Cytotoxicity (LDH assay); assay type: cell-based
Method: The amount of cell death was assayed by measuring the loss of lactate dehydrogenase (LDH) from the cells using a CytoTox 96 Cytoxicity Assay Kit (Promega Corp., Madison, Wis.). Fifty microliters of sample was loaded into a 96-well assay plates. Fresh, cell-free culture medium was used as a blank. 50 μl of substrate solution was added to each well and the plates incubated for 30 minutes at room temperature in the dark. Following incubation, 50 μl of stop solution was added to each well and the plates read on an optical density plate reader at 490 nm.
The amount of cell death will be assayed by measuring the loss of lactate dehydrogenase (LDH) from the cells using a CytoTox 96 Cytotoxicity Assay Kit (Promega Corp., Madison, Wis.). Fifty microliters of sample will be loaded into a 96-well assay plates. Fresh, cell-free culture medium will be used as a blank. Fifty microliters of substrate solution will be added to each well and the plates incubated for 30 minutes at room temperature in the dark. Following incubation, 50 μl of stop solution will be added to each well and the plates read on an optical density plate reader at 490 nm. The measurement of LDH release into the basolateral media indicates relative cytotoxicity of the samples. One hundred percent lysis of control inserts with 0.3% Octylphenolpoly(ethyleneglycolether)×(TritonX-100) allows LDH values to be expressed as percentage of total lysis.
In some embodiments, The amount of cell death was assayed by measuring the release of lactate dehydrogenase (LDH) from the cells into the apical medium using a CytoTox 96 Cytotoxicity Assay Kit (Promega Corp., Madison, Wis.). One percent Octylphenolpoly (ethyleneglycolether)×(Triton X-100™) diluted in phosphate buffered saline (PBS) causes 100% lysis in cultured cells and served herein as a positive control for the LDH assay. Following the one hour incubation period with a test formulation (refer to Table 24 of Example 25 for details of test formulations), the total liquid volume of each insert was brought to a final volume of 200 μl with culture medium. The apical medium was then mixed by pipetting four times with a multichannel pipette set to a 100 μl volume. After mixing, a 100 μl sample from the apical side of each insert was transferred to a new 96-well plate. The apical media samples were sealed with a plate sealer and stored at room temperature for same day analysis or stored overnight at 4° C. for analysis the next day. To measure LDH levels, 5 μl of the 100 μl apical media sample was diluted in 45 μl DPBS in a new 96-well plate. Fresh, cell-free culture medium will be used as a blank. Fifty microliters of substrate solution was added to each well and incubated for 30 minutes at room temperature away from direct light. Following the 30 minute incubation, 50 μl of stop solution was added to each well. Optical density (OD) was measured at 490 nm with a uQuant absorbance plate reader from Biotek Instruments. The measurement of LDH release into the apical media indicates relative cytotoxicity of the samples. Percent cytotoxicity for each test formulation was calculated by subtracting the measured absorbance of the PBS control (basal level of LDH release) from the measured absorbance of the individual test formulation and then dividing that value by the measured absorbance for the 1% Triton X-100™ positive control, multiplied by 100.
An LDH assay was used to assess the cytotoxicity of the treatments. The LDH level was determined by CytoTox96 Non-Radioactive Cytotoxic Assay (Promega, Madison, Wis.) following the manufacturer's protocol. For basal-lateral LDH levels, triplicates of 50 ul of the basal medium were used to determine the LDH level. For apical LDH level, 150 ul of the diluted apical sample was removed by adding 150 ul of Epi-CM to the apical chamber, the medium was mixed by pipeting up and down, and 150 ul medium was removed and diluted 2× (for a final 8-fold dilution) for assay in triplicates of 50 ul.

[3] = 15 minute treatment at the peptide's optimal concentration
[4] = 60 minute treatment at the peptide's optimal concentration

H-LKTLATALTKLAKTLTTL-NH2 [PN443]
Relative TER Decrease [1]: 0.3

H-KLWSAWPSLWSSLWKP-NH2 [PN228]
TER reduction ([1]; 100 μM peptide): 9%
TER reduction ([1]; 500 μM peptide): 82%
LDH15 [2]: 0.0063
LDH60 [2]: 0.046

CC(C)C[C@@H](NC(=O)[C@H](N)CCCCN)C(=O)N[C@H](C)C(=O)N[C@H](CC(C)C)C(=O)N[C@H](CCCCN)C(=O)N[C@H](CC(C)C)C(=O)N[C@H](C)C(=O)N[C@H](CC(C)C)C(=O)N[C@H](CCCCN)C(=O)N[C@H](C)C(=O)N[C@H](CC(C)C)C(=O)N[C@H](CCCCN)C(=O)N[C@H](C)C(=O)N[C@H](C)C(=O)N[C@H](CC(C)C)C(=O)N[C@H](CCCCN)C(=O)N[C@H](CC(C)C)C(=O)N[C@H](C)C(N)=O [PN393, NH2-klalklalkalkaalkla-amide]
TER(x)/TER(159) +/− SEM [1]: 1.06 +/− 0.00

H-KLAWKLALKALKAAWKLA-NH2 [PN0427]
Relative TER Decrease [1]: 1.0

CC[C@H](C)[C@H](NC(=O)[C@H](CCCCN)NC(=O)[C@@H](NC(=O)[C@H](CCC(N)=O)NC(=O)[C@@H](N)CCCNC(=N)N)[C@@H](C)CC)C(=O)N[C@@H](Cc1c[nH]c2ccccc12)C(=O)N[C@@H](Cc1ccccc1)C(=O)N[C@@H](CCC(N)=O)C(=O)N[C@@H](CC(N)=O)C(=O)N[C@@H](CCCNC(=N)N)C(=O)N[C@@H](CCCNC(=N)N)C(=O)N[C@@H](CCSC)C(=O)N[C@@H](CCCCN)C(=O)N[C@@H](Cc1c[nH]c2ccccc12)C(=O)N[C@@H](CCCCN)C(=O)N[C@@H](CCCCN)C(N)=O [PN58]
TER reduction ([1]; 250 μM peptide): −6%
TER reduction ([1]; 500 μM peptide): 64%
TER reduction ([1]; 1000 μM peptide): 88%
LDH15 [2, 3]: 0.0007
LDH60 [2, 4]: 0.02

H-KALAALLKKLAKLLAALK-NH2 [PN444]
TER(x)/TER(159) +/− SEM [1]: 0.82 +/− 0.05

H-KALAALLKKAAKLLAALK-NH2 [PN442]
TER(x)/TER(159) +/− SEM [1]: 0.93 +/− 0.03

H-KETWWETWWTEWSQPGRKKRRQRRRRPPQ-NH2 [PN183]
TER reduction ([1]; 100 μM peptide): 25%
TER reduction ([1]; 500 μM peptide): 41%
TER reduction ([1]; 1000 μM peptide): 55%
TER reduction (highest within the concentration range tested) [1]: 55%

Octylphenolpoly (ethyleneglycolether)×(Triton X-100™) [Triton X-100 ™, reference compound]
% Triton-X LDH Release ([2]; 1% Triton X-100, positive control): 100%

CC(C)C[C@H](NC(=O)[C@H](C)NC(=O)[C@H](CCCCN)NC(=O)[C@H](CC(C)C)NC(=O)[C@H](CC(N)=O)NC(=O)[C@H](CC(C)C)NC(=O)[C@H](CCCCN)NC(=O)[C@H](CC(C)C)NC(=O)[C@@H](CCCCN)NC(=O)[C@H](CC(C)C)NC(=O)[C@H](CCCCN)NC(=O)[C@H](CC(C)C)NC(=O)[C@H](C)NC(=O)[C@H](C)NC(=O)[C@H](CCCCN)NC(=O)[C@H](CC(C)C)NC(=O)[C@H](C)NC(=O)[C@H](CCCCN)NC(=O)[C@H](CC(C)C)NC(=O)[C@H](C)NC(=O)[C@H](CCCCN)NC(=O)[C@H](CC(C)C)NC(=O)[C@H](C)NC(=O)[C@H](CC(C)C)NC(=O)[C@@H](N)CCCCN)C(N)=O [PN422] (H-KLALKALKALKAALKL[dK]LKLNLKAL-NH2)
TER(x)/TER(159) +/− SEM [1]: 0.47 +/− 0.07

H-RLAWRLALRALRAALRLA-NH2 [PN395]
Relative TER Decrease [1]: 0.8

H-KLAWKLALKALKAALKLA-NH2 [PN0425]
Relative TER Decrease [1]: 1.0

H-LKLLKKLLKKLLKLL-NH2 [PN406]
Relative TER Decrease [1]: 0.9

H-KLALKLALKALKAALKLALKLA-NH2 [PN420]
TER(x)/TER(159) +/− SEM [1]: 0.77 +/− 0.05

H-KLAWKLAWKALKAAWKLA-NH2 [PN0428]
Relative TER Decrease [1]: 0.7

H-KLALKLALKALKAALKLALKLALK-NH2 [PN421]
TER(x)/TER(159) +/− SEM [1]: 0.74 +/− 0.11

H-RKKRRQRRRPPQCAAVALLPAVLLALLAP-NH2 [PN28]
TER reduction (highest within the concentration range tested) [1]: functionally equivalent to PN27

H-KLALKLALKALKAALKLALK-NH2 [PN419]
TER(x)/TER(159) +/− SEM [1]: 1.23 +/− 0.01

H-AAVALLPAVLLALLAPRKKRRQRRRPPQ-NH2 [PN27]
TER reduction ([1]; 125 μM peptide): 81%
TER reduction ([1]; 250 μM peptide): 91%
TER reduction ([1]; 500 μM peptide): 94%
LDH15 [2, 3]: 0.0056
LDH60 [2, 4]: 0.035

H-KALKLKAALALLAKLKLA-NH2 [PN424]
TER(x)/TER(159) +/− SEM [1]: 0.59 +/− 0.07

H-KLALKLALKNLKAALKLA-NH2 [PN448]
Relative TER Decrease [1]: 0.4

H-KLALKLALKALKAALK-NH2 [PN418]
TER(x)/TER(159) +/− SEM [1]: 1.05 +/− 0.05

H-KLAAALLKKAKKLAAALL-NH2 [PN441]
TER(x)/TER(159) +/− SEM [1]: 0.54 +/− 0.04

CC(C)C[C@H](NC(=O)[C@H](CC(C)C)NC(=O)[C@@H](CCCCN)NC(=O)[C@H](CC(C)C)NC(=O)[C@H](CC(C)C)NC(=O)[C@H](CCCCN)NC(=O)[C@@H](CCCCN)NC(=O)[C@@H](CC(C)C)NC(=O)[C@H](CC(C)C)NC(=O)[C@@H](CCCCN)NC(=O)[C@H](CCCCN)NC(=O)[C@H](CC(C)C)NC(=O)[C@@H](CC(C)C)NC(=O)[C@H](CCCCN)NC(=O)[C@@H](N)CC(C)C)C(N)=O [PN407, NH2-LKlLKkLlkKLLkLL-amide] (H-LK[dL]LK[dK]L[dL][dK]KLL[dK]LL-NH2)
TER(x)/TER(159) +/− SEM [1]: 1.08 +/− 0.01
Relative TER Decrease [1]: 1.1

CC(C)C[C@@H](NC(=O)[C@@H](C)N)C(=O)N[C@H](CCCCN)C(=O)N[C@H](CC(C)C)C(=O)N[C@H](C)C(=O)N[C@H](C)C(=O)N[C@H](CCCCN)C(=O)N[C@H](CC(C)C)C(=O)N[C@H](C)C(=O)N[C@H](CCCCN)C(=O)N[C@H](CC(C)C)C(=O)N[C@H](C)C(=O)N[C@H](CC(C)C)C(=O)N[C@H](CCCCN)C(=O)N[C@H](CC(C)C)C(=O)N[C@H](C)C(=O)N[C@H](CC(C)C)C(=O)N[C@H](CCCCN)C(N)=O [PN408, NH2-alklaaklaklalklalk-amide]
TER(x)/TER(159) +/− SEM [1]: 1.05 +/− 0.01
